For experiment [1], the system named is INS-GAS mice. The note with it: mouse, in vivo.
The test system of experiment [2] is gastric organoids. Briefly: In vitro gastric organoid culture with or without neuron co-culture: organoid growth. The format is cell-based, mouse.
Experiment [3] deals with Dclk1-CreERT; R26-DTA mice. The following applies: mouse, in vivo.
In experiment [4] the test system is DSS-colitis. The experiment is described as follows: Bethanechol in drinking water in DSS-colitis. It counts as in vivo, mouse.
A short description of experiment [5]: Bethanechol and response to 15 Gy abdominal irradiation (AIR). The format is in vivo, mouse.
The test system of experiment [6] is TMK1 gastric cancer cell line. The experiment is described as follows: YAP immunoblotting in TMK1 gastric cancer cell line. The format is cell-based, human. Also on record: changes of YAP phosphorylation after carbachol stimulation: dose or concentration left out as unconfirmed. On the procedure:
(§1) Similarly, carbachol treatment in Apc-deleted gastric organoids reduced the level of phosphorylated YAP (FIG. 51G). […] Next a human M3R gene-expressing construct was transfected into the M3R-negative AGS cell line. Overexpression of M3R decreased the level of phosphorylated YAP in a Gq-dependent manner, and activated the transcriptional activity of YAP in a luciferase assay (Dupont et al., 2011) (FIGS. 45B, 45C, and 52A).
(§2) Protein lysates were prepared from cells, separated by sodium dodecyl sulfate-polyacrylamide gel electrophoresis (SDS-PAGE), transferred to polyvinylidene difluoride membranes (Millipore). The membrane was probed with primary antibodies (phospho-YAP (Cell Signaling, 1:1000), YAP (Cell Signaling, 1:1000, and β-actin (Sigma, 1:5000) antibodies), and then incubated with the secondary antibody. Immunocomplexes were detected using the enhanced chemiluminescence system (Amersham Biosciences).
(§3) The human cancer cell lines were cultured in RPMI, DMEM, or Ham's F-12 medium supplemented with 10% fetal bovine serum, as described previously (Hayakawa et al., 2011).
On the technique in general: Immunoblotting shows a protein as a band on a membrane.

The subject of experiment [7] is INS-GAS mice. The note with it: mouse, in vivo. The source holds these as a separate data set.
For experiment [8], the system named is small cell lung cancer xenografts. The note with it: reference 50; cited from earlier work.
The subject of experiment [9] is gastric organoids. Briefly: Ngf expression in cultured gastric organoids treated with carbachol. The format is cell-based, mouse. The text has this: In mouse gastric tumors, there was also a specific upregulation of Ngf (almost 20 times higher expression than the normal stomach), and such upregulation was not observed in any other neurotrophins (FIG. 40B). Similar upregulation of Ngf was found in mouse colorectal tumors induced by azoxymethane (AOM) and dextran sodium sulfate (DSS) (FIG. 47B). […] Immunostaining and in situ hybridization confirmed that NGF was expressed within the neoplastic epithelium rather than the stromal compartment (FIGS. 40D and 47C), a finding confirmed by cell sorting and subsequent qPCR (FIGS. 40E and 40F). MNU tumor-derived organoids that are cultured in isolation, separated from their native microenvironment, lost Ngf expression within 7 days. […] Therefore, ACh production, possibly from tuft cells initially but later from innervated nerves with axonogenesis, is at least partly responsible for the neoplastic upregulation of NGF.
The harvested mouse stomachs were opened longitudinally and washed with cold PBS. The tissue was chopped into approximately 5 mm pieces, washed with cold PBS, and incubated in 8 mM EDTA in PBS for 60 minutes on ice. The tissue fragments were suspended vigorously in cold 10% FBS using a 10-mL pipette, yielding supernatants enriched in crypts. Gland fractions were centrifuged at 900 rpm for 6 minutes at 4° C. and diluted with advanced DMEM/F12 (Invitrogen) containing B27, N2, 1 μM n-Acetylcysteine, 10 mM HEPES, penicillin/streptomycin, and Glutamax (all from Invitrogen). […]
Total RNA was extracted from whole stomach samples from each animal using TRIzol reagent (Invitrogen) or the RNAqueous-micro kit (Ambion) and subjected to first-strand complementary DNA synthesis using the Superscript III cDNA Amplification System (Invitrogen) following the manufacturer's instructions. qRT-PCR was performed using a three-step method, an ABI 7300 system and SYBR green (Roche). […] The results were expressed as the copy number of each gene relative to that of Gapdh or GAPDH.

In experiment [10] the test system is Apc-deleted gastric organoids. The experiment is described as follows: YAP immunoblotting in Apc-deleted gastric organoids treated with carbachol. The following applies: 1 mM carbachol for 7 days. It counts as cell-based, mouse.
Excerpt: as §1
The harvested mouse stomachs were opened longitudinally and washed with cold PBS. The tissue was chopped into approximately 5 mm pieces, washed with cold PBS, and incubated in 8 mM EDTA in PBS for 60 minutes on ice. The tissue fragments were suspended vigorously in cold 10% FBS using a 10-mL pipette, yielding supernatants enriched in crypts. […]
as §2

Experiment [11] relates to human cancer cells. Briefly: NGF expression in human cancer cells treated with carbachol. It counts as cell-based. The note with it: TMK-1 cells, 10 mM carbachol for 24 hours.
Excerpt: as §1
Total RNA was extracted from whole stomach samples from each animal using TRIzol reagent (Invitrogen) or the RNAqueous-micro kit (Ambion) and subjected to first-strand complementary DNA synthesis using the Superscript III cDNA Amplification System (Invitrogen) following the manufacturer's instructions. qRT-PCR was performed using a three-step method, an ABI 7300 system and SYBR green (Roche). The qRT-PCR primer sequences are available upon request. The results were expressed as the copy number of each gene relative to that of Gapdh or GAPDH.
as §3

Experiment [12] has as its system gastric organoids. Briefly: Stem cell marker / Wnt target gene expression in gastric organoids (qRT-PCR). The format is cell-based, mouse. On the technique in general: Quantitative PCR measures a nucleic acid by following its amplification.
Where [13] appears, read: after knockout of tuft cells, bethanechol in the drinking water.

“Also recorded” adds a separate entry of the source. Starred links: 1 amine or outer side, 2 acyl side, 3 side chain; linkers in the order of their positions; H or OH if unused. Positions of bridges follow the written chain, without caps; N, C: chain ends. Non-standard residues stand in square brackets, D forms with d. Residues, ends and D or L forms follow the SMILES beside them. X1 = CC(=O)NC(C(=O)OC(C(C)C)C(N[*:1])C(=O)[*:2])C(O)C(C)C; PhLac = O=C(O)[CH](O)Cc1ccccc1; NMeT = CN[CH](C(=O)O)[CH](C)O; NMeA = CN[CH](C)C(=O)O; NMeDha = C=C(NC)C(=O)O

As for `O=c1[nH]cc(F)c(=O)[nH]1` [5-FU, 5-Fluorouracil], the tumor size result in experiment [1] was “no effect”.
Regarding `CN1[C@@H]2C[C@@H](OC(=O)[C@H](CO)c3ccccc3)C[C@H]1[C@@H]1O[C@@H]12` [scopolamine], the “stimulatory effect of neuron co-culture on gastric organoid growth” value in experiment [2] is recorded as “inhibited”.
For `CC(C[N+](C)(C)C)OC(N)=O` (centres unmarked) [bethanechol], in experiment [3], the “loss of proliferation in the stomach by Dclk1+ cell ablation” value was “rescue this effect at least in part; also recorded: significantly rescued”. For the same compound, the “mucosal / intestinal regeneration” value in experiment [4] (after ablation of Dclk1+ (tuft) cells, bethanechol in the drinking water) is on record as “restored; also recorded: improve”. Also, in experiment [4] (setting [13]), the proliferation result is recorded as “improved” and the ulcer length result is “reduction”. In addition, the DSS colitis result in [4] (bethanechol-treated) is listed as “Significant improvement”. The “proliferation (Ki67)” value in experiment [4] (mouse, in vivo) is given as “increased”. The survival entry in experiment [5] (15 Gy abdominal irradiation, bethanechol as a single agent immediately before or after the radiation) was “no significant overall impact”. Further, the “appearance of the colon after radiation” value in experiment [5] (both pre- and post-radiation treated mice) was “almost normal appearing”. Moreover, the “improvement of histopathologic score for the colon compared to the controls” value in experiment [5] (day +4 after radiation, both pre- and post-radiation treated mice) is reported as over 65%.
Take “NGF: nerve growth factor, used to treat TMK-1 cells”: the YAP activation entry in experiment [6] (TMK-1 cells treated with NGF) was “did not cause”.
Regarding `NC(=O)C(c1ccccc1)(c1ccccc1)[C@@H]1CCN(CCc2ccc3c(c2)CCO3)C1` [darifenacin], the “cellular proliferation of the tumors” value in experiment [7] is recorded as “reduced”. Further, in [8], the “growth of small cell lung cancer xenografts” value was “inhibit”.
Turning to `C=C1C(=O)NC(C)C(=O)N(C)C(C)C(=O)NC(C(OC(=O)C(NC(C)=O)C(O)C(C)C)C(C)C)C(=O)N(C)C(C(C)OC)C(=O)OC(C)C(NC(C)=O)C(=O)OC(Cc2ccccc2)C(=O)N1C` (centres unmarked) [YM254890] (Ac-T[PhLac][NMeDha]A[NMeA][X1][NMeT](Me); ester 1-C; configuration not given here), the “changes of YAP phosphorylation after carbachol stimulation” value in experiment [6] (pretreated with YM254890) is “blocked”.
`C[N+](C)(C)CCOC(N)=O` [carbachol]: the Ngf expression result in experiment [9] (MNU tumor-derived organoids cultured in isolation, day 7) is on record as “upregulated; also recorded: partly reestablished”; in experiment [9] (gastric organoids from WT mice, carbachol for 7 days), “upregulated”. The NGF expression entry is on record as “no change” in [9] (organoids from M3 Receptor Knockout (M3RKO) mice) and “significantly upregulated” in experiment [11]. The “level of phosphorylated YAP” value in experiment [6] (1 mM carbachol) and in experiment [10] was “reduced” in each case. In addition, the “levels of total YAP” value in experiment [6] (1 mM carbachol) was “no significant changes”.
Turning to `CC[C@@H]1C(=O)OC[C@@H]1Cc1cncn1C` [pilocarpine], the organoid growth result in [2] (relative number of organoids at day 10, 100 μM pilocarpine) is “stimulated”. In [12] (gastric organoids of M3KO mice), the “expression of Lgr5, Cd44, and Sox9” value is listed as “no effects”. Further, in experiment [12] (organoids from WT mice, 10 or 100 μM, day 7, dose-dependent), the “expression of gastric stem cell markers and Wnt target genes Lgr5, Cd44, and Sox9” value was “up-regulation”.
Take `O=C1[O][Pt]2([NH][C@@H]3CCCC[C@H]3[NH]2)[O]C1=O` [oxaliplatin]: the tumor size entry in [1] was “no effect”.

The values above are taken from patent US20170246267A1, “CHOLINERGIC ANTAGONISM AS AN ADJUNCT TO CANCER THERAPY” (The Trustees of Columbia University in the City of New York, priority 2014, published 2017).
